One data set concerns Vitis vinifera. Briefly: Phytotoxicity in Vitis vinifera assessed as induction of visual damage after compound application for 1 hr through two-tier reduced pressure fumigation at 30 mmHg for 0.5 hr and then 760 mmHg for 1.5 hr at 23 +/- 1 degC. Format: organism-based. Particulars: in vivo.
The test system of another data set is Brevicoryne brassicae. The experiment in a line: Insecticidal activity against Brevicoryne brassicae (cabbage aphids). Format: functional, organism-based.
The next data set relates to Lactuca sativa. The experiment in a line: Phytotoxicity in naked Lactuca sativa (lettuce) assessed as residual aldehyde odor after compound application through two-tier reduced pressure fumigation at 30 mmHg for 0.5 hr and then 760 mmHg for 1.5 hr at 23 +/- 1 degC after 2 hr. Format: organism-based. Conditions: in vivo.
For data set [1], the system named is Brassica oleracea var. italica. Briefly: Phytotoxicity in Brassica oleracea var. italica after compound application for 1 hr through two-tier reduced pressure fumigation at 30 mmHg for 0.5 hr and then 760 mmHg for 1.5 hr at 23 +/- 1 degC. Format: organism-based. Conditions: in vivo.
For data set [2], the system named is Brassica oleracea var. capitata. The experiment in a line: Phytotoxicity in Brassica oleracea var. capitata (cabbage) assessed as induction of visual damage after compound application for 1 hr through two-tier reduced pressure fumigation at 30 mmHg for 0.5 hr and then 760 mmHg for 1.5 hr at 23 +/- 1 degC. Conditions: in vivo. The data set is classed as organism-based.

A further data set has as its system Citrus x paradisi. The experiment in a line: Phytotoxicity in Citrus x paradisi (grape fruit) assessed as induction of visual damage after compound application for 1 hr through two-tier reduced pressure fumigation at 30 mmHg for 0.5 hr and then 760 mmHg for 1.5 hr at 23 +/- 1 degC. Format: organism-based. Conditions: in vivo.
The next data set concerns Myzus persicae. Briefly: Insecticidal activity against Myzus persicae (green peach aphid) applied through two-tier reduced pressure fumigation at 30 mmHg for 0.5 hr and then 760 mmHg for 1.5 hr at 23 +/- 1 degC. Format: functional.
Another data set has as its system Pseudococcus affinis. Briefly: Insecticidal activity against Pseudococcus affinis. Format: functional, organism-based.
A further data set has as its system Citrus limon. Briefly: Phytotoxicity in Citrus limon (lemon) assessed as induction of olfactory damage after compound application for 1 hr through two-tier reduced pressure fumigation at 30 mmHg for 0.5 hr and then 760 mmHg for 1.5 hr at 23 +/- 1 degC. Conditions: citrus x limon, in vivo. Format: organism-based.
In a further data set the test system is Phaseolus vulgaris. The experiment in a line: PhytoToxicity in Phaseolus vulgaris (beans) assessed as induction of olfactory damage after compound application for 1 hr through two-tier reduced pressure fumigation at 30 mmHg for 0.5 hr and then 760 mmHg for 1.5 hr at 23 +/- 1 degC. The data set is classed as organism-based. Conditions: in vivo.

Here are results for 1 compound from ChEMBL document CHEMBL3046689, “Volatile aldehydes are promising broad-spectrum postharvest insecticides” (J Agric Food Chem, 2000).

Active and inactive are the calls of the source. The rule behind the calls is not given here.

Take `CCC=O` [PROPIONALDEHYDE]: the Activity entry with Vitis vinifera is listed as “Non-toxic”; in the data set on Lactuca sativa, “Toxic”; in data set [1], “Toxic”; in data set [2], “Non-toxic”; in the data set with Citrus x paradisi it was “Non-toxic”; in the data set on Citrus limon it was “Non-toxic”. Moreover, the Activity entry in the data set on Phaseolus vulgaris was “Non-toxic”. For the same compound, in the data set with Brevicoryne brassicae, the result was inactive. In addition, the CTP in the data set with Myzus persicae came out at 4.2 mg/L.hr. Also, the outcome in the data set on Pseudococcus affinis was Active.
